Measurements from US9434719B2, “3-pyrimidin-4-yl-oxazolidin-2-ones as inhibitors of mutant IDH” (NOVARTIS AG, priority 2013, dated 2016).
Where a name gives a salt, the structure may show the parent alone.

Legend:
Assay type in all cases: in vitro ADME
[1] = Metabolic stability in liver microsomes, Method I, rat; details: 1 μM test compound; for microsomal CLint at 1 μM: male, Sprague-Dawley, liver microsomes; for microsomal CLint at 1 μM / microsomal CLint: rat; for microsomal CLint: microsomes
Protocol: (§10) The in vitro metabolic stability assay was performed in a 96-well glass plate with shaking incubation at 37° C. A 10 mM DMSO stock solution of the test compound was sequentially diluted 1:1000 to yield a final reaction concentration of 1 μM in 50 mM KPi. […] 30 μL of the 10 μM solution containing the test compound was added to 120 μL of microsomal protein for 150 μL enzyme-compound mixture. The reaction was initiated by adding 150 μL of cofactor solution (2 mM NADPH, 4 mM MgCl in 50 mM KPi) to the enzyme-compound mixture, and the final reaction concentrations are listed in the table below.
(§11) At 0, 5, 10 and 30 minute time points in the reaction, reaction aliquots (50 μL) were removed and the reactions were terminated by the addition of acetonitrile (150 μL) containing a mass spectrometry internal standard (1 μM glyburide). The samples were centrifuged and the supernatants analyzed by LC-MS/MS for quantization of remaining compound.
(§12) Analysis of the samples was performed on a high performance liquid chromatography-tandem mass spectrometry (LC/MS) system consisting of a Thermo TSQ Quantum Ultra mass spectrometer, an H-ESI ion source, a CTC-HTS Pal autosampler, and an Agilent LC Pump.
(§13) Mobile phase A consisted of purified water containing 0.01% formic acid. Mobile phase B consisted of acetonitrile containing 0.01% formic acid. The flow rate was 1 mL/min. The injection volume was 10 μL. Compounds were detected using the Thermo QuikQuan software which collects intensity data for all fragments related to the molecular weight of the test compound. After collection of the raw data, the software identifies and integrates the peak of the strongest intensity.
(§14) Each microsomal elimination rate, kmic, was based on a 4-point elimination curve tested in singlet. LC-MS/MS raw data for a reaction plate was returned as integrated analyte peak areas for the test compound and internal standard used in the quench solution for the reaction to enable use of analyte:internal standard peak area ratios (PARs) for all data comparisons. The reaction time point (e.g. 0, 5, 20 or 30 minutes) was plotted versus the natural logarithm of percent test compound remaining relative to 0 minutes (based on relative PAR).

[2] = Metabolic stability in liver microsomes, Method I, mouse; details: for microsomal CLint at 1 μM: male, CD-1, 1 μM test compound; for microsomal CLint: 1 μM test compound
Protocol: as §10, §11, §12, §13, §14

[3] = Metabolic stability in liver microsomes, Method I, human; details: 1 μM test compound; for microsomal CLint at 1 μM: pooled liver microsomes
Protocol: as §10, §11, §12, §13, §14

[4] = Metabolic stability in liver microsomes, Method II, rat; details: 1 μM test compound, NADPH + UDPGA; for microsomal CLint at 1 μM: male, Sprague-Dawley
Protocol: The in vitro metabolic stability assay was performed in a 96-deep-well plate with incubation at 37° C. 10 mM DMSO stock solution of the test compound was diluted 1:20 in acetonitrile, followed by an additional 1:10 dilution in 100 mM potassium phosphate buffer (KPi) to yield a final reaction concentration of 1 μM. […] 290 μL of cofactor solution (1.7 mM NADPH, 1.7 mM UDPGA, 3.4 mM MgCl in 100 mM KPi) was added to 200 μL of microsomal protein for a final volume of 490 μL. The reaction was initiated by adding 10 μL of the 50 μM test solution to 490 μL of microsomal protein for a final volume 500 μL enzyme-compound mixture.
UPLC mobile phase A: 0.25% formic acid in 5% methanol; mobile phase B: 0.25% formic acid in 95% water.

[5] = Metabolic stability in liver microsomes, Method II, mouse; details: 1 μM test compound, NADPH + UDPGA
Protocol: (§1) Determination of Metabolic Stability in Liver Microsomes—Method II
(§2) The in vitro metabolic stability assay was performed in a 96-deep-well plate with incubation at 37° C. 10 mM DMSO stock solution of the test compound was diluted 1:20 in acetonitrile, followed by an additional 1:10 dilution in 100 mM potassium phosphate buffer (KPi) to yield a final reaction concentration of 1 μM. Immediately prior to the start of the experiment, respective animal or human liver microsomes (male Sprague-dawley rat, male CD-1 mouse, or pooled human liver microsomes) were diluted in 100 mM KPi to 1.25 mg/mL liver microsomal protein. 290 μL of cofactor solution (1.7 mM NADPH, 1.7 mM UDPGA, 3.4 mM MgCl in 100 mM KPi) was added to 200 μL of microsomal protein for a final volume of 490 μL. The reaction was initiated by adding 10 μL of the 50 μM test solution to 490 μL of microsomal protein for a final volume 500 μL enzyme-compound mixture.
(§3) At 0, 5, 15 and 30 minute time points in the reaction, reaction aliquots (75 μL) were removed and the reactions were terminated by the addition of 50:50 acetonitrile/methanol solution (75 μL) containing a mass spectrometry internal standard (0.5 μM glyburide). The samples were centrifuged at 4000 RPM for 10 minutes. Supernatants (15 μL aliquots) were transferred to a new plate where each well contains 90 μL of deionized water. The supernatants solution were analyzed by UPLC/MS/MS for quantitation of parent remaining compound under multiple reactions monitoring mode (MRM) in positive mode. The percentage of compound remaining, relative to 0 minutes, was used to estimate in vitro elimination-rate constant (k) which was used to calculate in vitro metabolic clearance rates.
(§4) Analysis of the samples was performed on an ultra-performance liquid chromatography-tandem mass spectrometry (UPLC/MS/MS) system consisting of an AB Sciex Qtrap 5500 mass spectrometer, AB Sciex Turbo V ion source, Waters Acquity Sample Organizer, Waters Acquity Column manager, Waters Acquity Sample manager, and a Waters Acquity Binary Solvent Manager. Chromatographic separation of analyte and internal standard was achieved using a reverse phase C-18 column (50×2.1 mm, 1.7 μm, Acquity UPLC BEH C-18) with the following UPLC mobile phases and elution gradient: […]
(§5) UPLC mobile phase A: 0.25% formic acid in 5% methanol; mobile phase B: 0.25% formic acid in […].
(§6) The injection volume was 5 μL. Compounds were detected using Analyst 1.5.1 software which collects intensity data for all fragments related to the molecular weight of the test compound. After collection of the raw data, the software identifies and integrates the peak of the strongest intensity.
(§7) Each microsomal elimination rate, k, was based on a 4-point elimination curve tested in duplicates. LC-MS/MS raw data for a reaction plate was returned as integrated analyte peak areas for the test compound and internal standard used in the quench solution for the reaction to enable use of analyte:internal standard peak area ratios (PARs) for all data comparisons. The reaction time point (e.g. 0, 5, 15 and 30 minutes) was plotted versus the natural logarithm of percent test compound remaining relative to 0 minutes (based on relative PAR). The slope of this clearance plot, k, was used to calculate the in vitro half-life.
(§8) [formula] The intrinsic clearance value, CLint (expressed as μL/min/mg microsomal protein) calculation is shown below:
(§9) [formula] Where V=the incubation volume (mL) and M=the microsomal protein content in the incubation (mg)

[6] = Metabolic stability in liver microsomes, Method II, human; details: 1 μM test compound, NADPH + UDPGA
Protocol: as §1, §2, §3, §4, §5, §6, §7, §8, §9

| SMILES | microsomal CLint at 1 μM [1] [µL/min/mg] | microsomal CLint at 1 μM [2] [µL/min/mg] | microsomal CLint at 1 μM [3] [µL/min/mg] | further results |
| --- | --- | --- | --- | --- |
| Cc1ccc(-c2noc(C(C)Nc3ncc(F)c(N4C(=O)OC[C@@H]4[C@@H](C)O)n3)n2)cc1F (single isomer, unassigned) [Example 122] | 69.4 |  |  |  |
| CC(Nc1nccc(N2C(=O)OC[C@@H]2[C@@H](C)O)n1)c1nc(-c2ccc3c(c2)OC(F)(F)O3)no1 (single isomer, unassigned) [Example 169] | 68.8 |  |  | Rat microsomal stability CLint [1]: 60.93 µL/min/mg |
| CC(Nc1nccc(N2C(=O)OC[C@@H]2[C@@H](C)O)n1)c1nc(-c2ccc(C(F)(F)F)cc2)no1 (single isomer, unassigned) [Example 174] | 48.5 |  |  |  |
| CC(Nc1nccc(N2C(=O)OC[C@@H]2[C@@H](C)O)n1)c1nc(-c2ccc(C(F)(F)F)cc2)no1 (single isomer, unassigned) [Example 175] |  | 56.3 | 39.8 | Rat microsomal stability CLint [1]: 50.51 µL/min/mg |
| CC(Nc1nccc(N2C(=O)OC[C@@H]2[C@@H](C)O)n1)c1nc(-c2ccc(OC(F)(F)F)cc2)no1 (single isomer, unassigned) [Example 181] | 56.6 |  |  |  |
| C[C@H](Nc1ncc(F)c(N2C(=O)OC[C@@H]2CF)n1)c1cn(-c2ccc(C(F)F)cc2)cn1 [434 as TFA salt] |  |  |  | microsomal CLint [1]: 41 µL/min/mg; microsomal CLint [2]: 10.7 µL/min/mg; microsomal CLint [3]: < 7.7 µL/min/mg; microsomal CLint [4]: 10.8 µL/min/mg |
| C[C@H](Nc1nccc(N2C(=O)OC[C@@H]2[C@H](C)F)n1)c1cn(-c2ccc(C(F)F)cc2)cn1 [456 as TFA salt] |  |  |  | microsomal CLint [1]: 44.7 µL/min/mg; microsomal CLint [3]: 16.8 µL/min/mg |
| C[C@H](Nc1nccc(N2C(=O)OC[C@@H]2CF)n1)c1cn(-c2ccc(F)cc2)cn1 [471 as TFA salt] |  |  |  | microsomal CLint [4]: < 7.7 µL/min/mg; microsomal CLint [5]: 14.8 µL/min/mg; microsomal CLint [6]: < 7.7 µL/min/mg |
| C[C@H](Nc1ncc(F)c(N2C(=O)OC[C@@H]2CF)n1)c1cn(-c2ccc(F)c(Cl)c2)cn1 [472 as TFA salt] |  |  |  | microsomal CLint [4]: 12 µL/min/mg; microsomal CLint [5]: 45.6 µL/min/mg; microsomal CLint [6]: < 7.7 µL/min/mg |
| C[C@H](Nc1nccc(N2C(=O)OC[C@@H]2CF)n1)c1cn(-c2ccc(Cl)c(F)c2)cn1 [473 as TFA salt] |  |  |  | microsomal CLint [1]: 72.5 µL/min/mg; microsomal CLint [2]: 17.7 µL/min/mg; microsomal CLint [3]: < 7.7 µL/min/mg; microsomal CLint [4]: 33.3 µL/min/mg |
| C[C@H](Nc1nccc(N2C(=O)OC[C@@H]2CF)n1)c1cn(-c2ccc(C(F)F)c(F)c2)cn1 [475 as TFA salt] |  |  |  | microsomal CLint [1]: 54 µL/min/mg; microsomal CLint [2]: 15.7 µL/min/mg; microsomal CLint [3]: < 7.7 µL/min/mg; microsomal CLint [4]: 16.2 µL/min/mg |
| C[C@H](Nc1nccc(N2C(=O)OC[C@@H]2[C@H](C)O)n1)c1ccc(CN2CCN(C)C(C)(C)C2)c(F)c1 [Example 48, (R)-3-(2-((S)-1-(3-fluoro-4-((3,3,4-trimethylpiperazin-1-yl)methyl)phenyl)ethylamino)pyrimidin-4-yl)-4-((S)-1-hydroxyethyl)oxazolidin-2-one] | 49.1 | 173 | 121 |  |
| C[C@H](Nc1nccc(N2C(=O)OC[C@@H]2[C@@H](C)O)n1)c1ccc(-c2ccnc(C(F)(F)F)c2)cn1 [Example 55, (R)-4-((R)-1-hydroxyethyl)-3-(2-(((S)-1-(2′-(trifluoromethyl)-[3,4′-bipyridin]-6-yl)ethyl)amino)pyrimidin-4-yl)oxazolidin-2-one] | 58.4 | 63.1 |  |  |
| Cc1cc(-c2ccnc(C(F)(F)F)c2)cnc1[C@H](C)Nc1nccc(N2C(=O)OC[C@@H]2[C@@H](C)O)n1 [Example 61, (R)-4-((R)-1-hydroxyethyl)-3-(2-(((S)-1-(5-methyl-2′-(trifluoromethyl)-[3,4′-bipyridin]-6-yl)ethyl)amino)pyrimidin-4-yl)oxazolidin-2-one] | 34.6 | 67.7 | 66.4 |  |
| C[C@H](Nc1nccc(N2C(=O)OC[C@@H]2[C@@H](C)N)n1)c1cnc(-c2ccc(Cl)cc2)s1 [Example 380, (S)-4-((R)-1-aminoethyl)-3-(2-(((S)-1-(2-(4-chlorophenyl)thiazol-5-yl)ethyl)amino)pyrimidin-4-yl)oxazolidin-2-one] | 42.9 | 51 | 31.1 | microsomal CLint at 1 μM [4]: 30.2 µL/min/mg |
| C[C@H](Nc1nccc(N2C(=O)OC[C@@H]2[C@H](C)F)n1)c1cn(-c2ccc(F)cc2)cn1 [Example 401, (R)-4-((S)-1-fluoroethyl)-3-(2-(((S)-1-(1-(4-fluorophenyl)-1H-imidazol-4-yl)ethyl)amino)pyrimidin-4-yl)oxazolidin-2-one] | 30.4 | 33.1 | < 7.7 | microsomal CLint at 1 μM [4]: 92.4 µL/min/mg |
| C[C@H](Nc1nccc(N2C(=O)OC[C@@H]2CF)n1)c1cn(-c2ccc(Cl)cc2)cn1 [Example 404, (R)-3-(2-(((S)-1-(1-(4-chlorophenyl)-1H-imidazol-4-yl)ethyl)amino)pyrimidin-4-yl)-4-(fluoromethyl)oxazolidin-2-one] | 44.6 | 18.7 | < 7.7 | microsomal CLint at 1 μM [4]: 75.4 µL/min/mg |
| C[C@H](Nc1nccc(N2C(=O)OC[C@@H]2[C@H](C)F)n1)c1ncc(-c2ccnc(C(F)(F)F)c2)cc1F [Example 463, (R)-3-(2-(((S)-1-(5-fluoro-2′-(trifluoromethyl)-[3,4′-bipyridin]-6-yl)ethyl)amino)pyrimidin-4-yl)-4-((S)-1-fluoroethyl)oxazolidin-2-one] | 50.8 | 35.5 | 28.3 | microsomal CLint at 1 μM [4]: 49.8 µL/min/mg |
| C[C@H](Nc1nccc(N2C(=O)OC[C@@H]2[C@H](C)F)n1)c1ncc(-c2cccc(C(F)(F)F)c2F)cn1 [Example 467, (R)-3-(2-(((S)-1-(5-(2-fluoro-3-(trifluoromethyl)phenyl)pyrimidin-2-yl)ethyl)amino)pyrimidin-4-yl)-4-((S)-1-fluoroethyl)oxazolidin-2-one] | 75.6 | 275 | 53.3 | microsomal CLint at 1 μM [4]: 85.4 µL/min/mg |
| C[C@H](Nc1nccc(N2C(=O)OC[C@@H]2[C@H](C)F)n1)c1ccc(-c2ccnc(C(F)(F)F)c2)cn1 [Example 468, (R)-4-((S)-1-fluoroethyl)-3-(2-(((S)-1-(2′-(trifluoromethyl)-[3,4′-bipyridin]-6-yl)ethyl)amino)pyrimidin-4-yl)oxazolidin-2-one] | 30.5 | 28.9 | 70.1 |  |
| Cc1cc(-c2cnc([C@H](C)Nc3nccc(N4C(=O)OC[C@@H]4[C@H](C)F)n3)nc2)ccc1F [Example 469, (R)-3-(2-(((S)-1-(5-(4-fluoro-3-methylphenyl)pyrimidin-2-yl)ethyl)amino)pyrimidin-4-yl)-4-((S)-1-fluoroethyl)oxazolidin-2-one] | 132 |  |  |  |
| Cc1cc([C@H](C)Nc2ncc(F)c(N3C(=O)OC[C@@H]3[C@H](C)F)n2)ncc1-c1ccnc(C(F)(F)F)c1 [Example 470, (R)-3-(5-fluoro-2-(((S)-1-(4-methyl-2′-(trifluoromethyl)-[3,4′-bipyridin]-6-yl)ethyl)amino)pyrimidin-4-yl)-4-((S)-1-fluoroethyl)oxazolidin-2-one] | 52.8 | 47.3 | 83.6 |  |
| C[C@H](Nc1ncc(F)c(N2C(=O)OC[C@@H]2CF)n1)c1ncc(-c2ccc(Cl)cc2)o1 [Example 480, (R)-3-(2-(((S)-1-(5-(4-chlorophenyl)oxazol-2-yl)ethyl)amino)-5-fluoropyrimidin-4-yl)-4-(fluoromethyl)oxazolidin-2-one] | 65.2 | 51.5 | 35.6 |  |
